We go through 57 compounds from patent US20230012560A1, “HEPATITIS B ANTIVIRAL AGENTS” (TAIGEN BIOTECHNOLOGY CO., LTD., priority 2019, published 2023).

The subject of this assay is HBV (HepAD38 cells). Briefly: Real-Time PCR Assay (extracellular HBV DNA from HepAD38 culture supernatants). It counts as cell-based. Particulars: Hepatitis B virus, 120 h, compound treatment for 5 days without tetracycline, extracellular DNA in culture supernatant quantified by real-time PCR, read-out: EC50 (50% effective concentration). The procedure:
HepAD38 cells were seeded and cultured on 96-well plates. After incubation for 2 days, cells were fed with compound-containing media without tetracycline. After compound treatment for 5 days, culture supernatants were collected. Extracellular DNA was then extracted using LabTurbo DNA mini kit, and quantified by real-time PCR.
Real-time PCR was performed using an ABI QuantStudio 3 system in a 96-well optical plate format. The PCR mixture containing forward primer (5′-[…]-3′) (SEQ ID NO.1), reverse primer (5′-GGTGAGTGATTGGAGGTTG-3′) (SEQ ID NO.2) and Luna Universal qPCR Master Mix in a final volume of 24 μl was incubated at 95° C. for 10 min followed by 45 cycle of incubation at 95° C. for 10 s and 60° C. for 10 s. Regression analysis was performed using GraphPad Prism 5 to calculate the 50% effective concentration (EC50) values.
(In general: In qPCR the cycle at which signal appears reflects the starting amount.)
`Cn1cc(S(=O)(=O)N[C@@H]2CCN(S(=O)(=O)C3(C)CC3)C2)c(F)c1C(=O)Nc1ccc(F)c(F)c1` [Compound 2]: the EC50 was below 100 nM.
With `Cn1cc(S(=O)(=O)N[C@@H]2CCN(S(=O)(=O)C3CCCC3)C2)c(F)c1C(=O)Nc1ccc(F)c(F)c1` [Compound 3] the figure was 100 to 300 nM; with `COCCS(=O)(=O)N1CC[C@@H](NS(=O)(=O)c2cn(C)c(C(=O)Nc3ccc(F)c(F)c3)c2F)C1` [Compound 4], below 100 nM; with `CNS(=O)(=O)N1CC[C@@H](NS(=O)(=O)c2cn(C)c(C(=O)Nc3ccc(F)c(F)c3)c2F)C1` [Compound 5], below 100 nM.
With `CNS(=O)(=O)N1CC[C@@H](NS(=O)(=O)c2cn(C)c(C(=O)Nc3cc(F)c(F)c(F)c3)c2F)C1` [Compound 6] the figure was below 100 nM.
With `CNS(=O)(=O)N1CC[C@@H](NS(=O)(=O)c2c(F)c(C(=O)Nc3ccc(F)c(F)c3)n(C)c2Br)C1` [Compound 8] the figure was below 100 nM; with `CN(C)S(=O)(=O)N1CC[C@@H](NS(=O)(=O)c2cn(C)c(C(=O)Nc3ccc(F)c(F)c3)c2F)C1` [Compound 9], below 100 nM.
As to `CNS(=O)(=O)N1CC[C@@H](NS(=O)(=O)c2c(F)c(C(=O)Nc3ccc(F)c(F)c3)n3c2CCC3)C1` [Compound 10], the EC50 was below 100 nM.
On to `CNS(=O)(=O)N1CC[C@@H](NS(=O)(=O)c2c(F)c(C(=O)Nc3ccc(F)c(F)c3)n3c2CCCC3)C1` [Compound 11], for which the EC50 lay within 100 to 300 nM.
The result for `CNS(=O)(=O)N1CC[C@@H](NS(=O)(=O)c2c(Cl)c(C(=O)Nc3cc(F)c(F)c(F)c3)n3c2CCC3)C1` [Compound 12] reads below 100 nM.
With `Cn1cc(S(=O)(=O)N[C@@H]2CCN(S(=O)(=O)c3ccc(F)cc3)C2)c(F)c1C(=O)Nc1ccc(F)c(F)c1` [Compound 13] the figure was below 100 nM; with `Cn1cc(S(=O)(=O)N[C@@H]2CCN(S(=O)(=O)/C=C/c3ccccc3)C2)c(F)c1C(=O)Nc1ccc(F)c(F)c1` [Compound 14], 100 to 300 nM.
With `CNS(=O)(=O)N1CC[C@@H](NS(=O)(=O)c2cn(C)c(C(=O)Nc3ccc(F)c(C(F)F)c3)c2F)C1` [Compound 16] the figure was below 100 nM.
Regarding `CCn1cc(S(=O)(=O)N[C@@H]2CCN(S(=O)(=O)NC)C2)c(F)c1C(=O)Nc1ccc(F)c(F)c1` [Compound 17], the EC50 was below 100 nM.
The result for `CNS(=O)(=O)N1CCC(C)C(NS(=O)(=O)c2cn(C)c(C(=O)Nc3ccc(F)c(F)c3)c2F)C1` (stereo not drawn) [Compound 19] reads below 100 nM.
With `CNS(=O)(=O)N1CCCC(C)(NS(=O)(=O)c2cn(C)c(C(=O)Nc3ccc(F)c(F)c3)c2F)C1` (stereo not drawn) [Compound 20] the figure was below 100 nM.
The result for `CNS(=O)(=O)N1CCC[C@@H](NS(=O)(=O)c2cn(C)c(C(=O)Nc3cccc(C(F)(F)F)c3)c2F)C1` [Compound 21] reads below 100 nM.
As to `CCn1cc(S(=O)(=O)N[C@@H]2CCCN(S(=O)(=O)NC)C2)c(F)c1C(=O)Nc1ccc(F)c(F)c1` [Compound 22], the EC50 is below 100 nM.
With `Cn1cc(S(=O)(=O)NC2CCN(S(=O)(=O)C3(C)CC3)CC2)c(F)c1C(=O)Nc1ccc(F)c(F)c1` [Compound 24] the figure was below 100 nM; with `CNS(=O)(=O)N1CCC(C)(NS(=O)(=O)c2cn(C)c(C(=O)Nc3ccc(F)c(F)c3)c2F)CC1` [Compound 25], below 100 nM; with `CCS(=O)(=O)N1CCC2(NS(=O)(=O)c3cn(C)c(C(=O)Nc4ccc(F)c(F)c4)c3F)CC2C1` (stereo not drawn) [Compound 26], below 100 nM.
The result for `CNS(=O)(=O)N1CCC(NS(=O)(=O)c2cn(C)c(C(=O)Nc3ccc(F)c(F)c3)c2F)C(F)(F)C1` (stereo not drawn) [Compound 27] reads below 100 nM; that for `CN(C)C(=O)C(=O)N1CC[C@@H](NS(=O)(=O)c2cn(C)c(C(=O)Nc3cc(F)c(F)c(F)c3)c2F)C1` [Compound 30], below 100 nM; that for `COCCNC(=O)C(=O)N1CC[C@@H](NS(=O)(=O)c2cn(C)c(C(=O)Nc3ccc(F)c(F)c3)c2F)C1` [Compound 32], below 100 nM.
Consider `Cn1cc(S(=O)(=O)N[C@@H]2CCN(C(=O)C(=O)NC3CC3)C2)c(F)c1C(=O)Nc1ccc(F)c(F)c1` [Compound 33], for which the EC50 was below 100 nM.
Regarding `C#CCNC(=O)C(=O)N1CC[C@@H](NS(=O)(=O)c2cn(C)c(C(=O)Nc3ccc(F)c(F)c3)c2F)C1` [Compound 34], the EC50 was below 100 nM.
As to `CCONC(=O)C(=O)N1CC[C@@H](NS(=O)(=O)c2cn(C)c(C(=O)Nc3cc(F)c(F)c(F)c3)c2F)C1` [Compound 35], the EC50 is below 100 nM.
With `Cn1cc(S(=O)(=O)N[C@@H]2CCN(C(=O)C(=O)NC3COC3)C2)c(F)c1C(=O)Nc1cc(F)c(F)c(F)c1` [Compound 36] the figure was below 100 nM.
The result for `Cn1cc(S(=O)(=O)N[C@@H]2CCN(C(=O)C(=O)NCCO)C2)c(F)c1C(=O)Nc1cc(F)c(F)c(F)c1` [Compound 37] reads below 100 nM; that for `CC(=O)OCCNC(=O)C(=O)N1CC[C@@H](NS(=O)(=O)c2cn(C)c(C(=O)Nc3cc(F)c(F)c(F)c3)c2F)C1` [Compound 38], below 100 nM.
For the compound `C[C@@H](NC(=O)C(=O)N1CC[C@@H](NS(=O)(=O)c2cn(C)c(C(=O)Nc3cc(F)c(F)c(F)c3)c2F)C1)C(F)(F)F` [Compound 39], the EC50 is below 100 nM.
With `CNC(=O)C(=O)N1CC[C@@H](NS(=O)(=O)c2cn(C)c(C(=O)Nc3ccc(F)c(C(F)F)c3)c2F)C1` [Compound 40] the figure was below 100 nM; with `CNC(=O)C(=O)N1CC[C@@H](NS(=O)(=O)c2cn(C)c(C(=O)Nc3ccc(F)c(Cl)c3)c2F)C1` [Compound 41], below 100 nM; with `CNC(=O)C(=O)N1CC[C@@H](NS(=O)(=O)c2c(F)c(C(=O)Nc3cc(F)c(F)c(F)c3)n(C)c2Cl)C1` [Compound 43], below 100 nM.
With `CNC(=O)C(=O)N1CC[C@@H](NS(=O)(=O)c2c(F)c(C(=O)Nc3ccc(F)c(F)c3)n(C)c2C)C1` [Compound 44] the figure was below 100 nM; with `CCNC(=O)C(=O)N1CC[C@@H](NS(=O)(=O)c2c(F)c(C(=O)Nc3cc(F)c(F)c(F)c3)n3c2CCC3)C1` [Compound 45], below 100 nM.
The result for `CNC(=O)C(=O)N1CC[C@@H](NS(=O)(=O)c2c(F)c(C(=O)Nc3cc(F)c(F)c(F)c3)n3c2CCCC3)C1` [Compound 46] reads 100 to 300 nM; that for `CNC(=O)C(=O)N1CC[C@@H](NS(=O)(=O)c2c(Cl)c(C(=O)Nc3cc(F)c(F)c(F)c3)n3c2CCC3)C1` [Compound 47], 100 to 300 nM; that for `CNC(=O)C(=O)N1CC[C@@H](NS(=O)(=O)c2cn(CC(F)F)c(C(=O)Nc3ccc(F)c(F)c3)c2F)C1` [Compound 48], below 100 nM.
Turning to `CNC(=O)C(=O)N1CC[C@@H](NS(=O)(=O)c2cn(C3CC3)c(C(=O)Nc3ccc(F)c(F)c3)c2F)C1` [Compound 49], the EC50 is below 100 nM.
The result for `CNC(=O)C(=O)N1CC[C@@H](NS(=O)(=O)c2cn(CC3CC3)c(C(=O)Nc3ccc(F)c(F)c3)c2F)C1` [Compound 50] reads 100 to 300 nM; that for `CCCn1cc(S(=O)(=O)N[C@@H]2CCN(C(=O)C(=O)NC)C2)c(F)c1C(=O)Nc1ccc(F)c(F)c1` [Compound 51], below 100 nM; that for `C=CCn1cc(S(=O)(=O)N[C@@H]2CCN(C(=O)C(=O)NC)C2)c(F)c1C(=O)Nc1ccc(F)c(F)c1` [Compound 52], below 100 nM.
With `CNC(=O)C(=O)N1CC[C@@H](NS(=O)(=O)c2cn(C3CCCC3)c(C(=O)Nc3ccc(F)c(F)c3)c2F)C1` [Compound 53] the figure was 300 to 1000 nM; with `CCNC(=O)C(=O)N1CC(C)C(NS(=O)(=O)c2cn(C)c(C(=O)Nc3cc(F)c(F)c(F)c3)c2F)C1` (stereo not drawn) [Compound 54], below 100 nM.
The result for `CNC(=O)C(=O)N1CC2CC2(NS(=O)(=O)c2cn(C)c(C(=O)Nc3cc(F)c(F)c(F)c3)c2F)C1` (stereo not drawn) [Compound 55] reads below 100 nM.
On to `CCNC(=O)C(=O)N1CC(NS(=O)(=O)c2cn(C)c(C(=O)Nc3cc(F)c(F)c(F)c3)c2F)C1` [Compound 56], for which the EC50 was below 100 nM.
The result for `CCn1cc(S(=O)(=O)N[C@@H]2CCCN(C(=O)C(N)=O)C2)c(F)c1C(=O)Nc1ccc(F)c(F)c1` [Compound 58] reads below 100 nM; that for `CNC(=O)C(=O)N1CCC2CC2(NS(=O)(=O)c2cn(C)c(C(=O)Nc3cc(F)c(F)c(F)c3)c2F)C1` (stereo not drawn) [Compound 59], below 100 nM; that for `CNS(=O)(=O)N[C@@H]1CCN(S(=O)(=O)c2cn(C)c(C(=O)Nc3cc(F)c(F)c(F)c3)c2F)C1` [Compound 60], 300 to 1000 nM.
As for `CCNC(=O)C(=O)N[C@@H]1CCN(S(=O)(=O)c2cn(C)c(C(=O)Nc3cc(F)c(F)c(F)c3)c2F)C1` [Compound 61], the EC50 is 300 to 1000 nM.
Regarding `CNS(=O)(=O)NC1CCN(S(=O)(=O)c2cn(C)c(C(=O)Nc3cc(F)c(F)c(F)c3)c2F)CC1` [Compound 62], the EC50 was in the range of 300 to 1000 nM.
The result for `CCNC(=O)C(=O)NC1CCN(S(=O)(=O)c2cn(C)c(C(=O)Nc3cc(F)c(F)c(F)c3)c2F)CC1` [Compound 63] reads 100 to 300 nM.
The result for `CCNC(=O)C(=O)N1CCN(S(=O)(=O)c2cn(C)c(C(=O)Nc3cc(F)c(F)c(F)c3)c2F)CC1` [Compound 65] reads 300 to 1000 nM; that for `CNS(=O)(=O)N1CCN(S(=O)(=O)c2cn(C)c(C(=O)Nc3cc(F)c(F)c(F)c3)c2F)CC1` [Compound 66], 100 to 300 nM; that for `CCS(=O)(=O)N1CC2CC1CN2S(=O)(=O)c1cn(C)c(C(=O)Nc2ccc(F)c(F)c2)c1F` (stereo not drawn) [Compound 67], 300 to 1000 nM.
With `Cn1cc(S(=O)(=O)NC2CCN(C(=O)C(N)=O)CC2)c(F)c1C(=O)Nc1cc(F)c(F)c(F)c1` [Compound 68] the figure was below 100 nM.
